How the values were obtained:
αβ (1:50) GluClRs = αβ (1:50) GluClRs (Haemonchus contortus, UniProt O46124+P91730); assay: Two-electrode voltage clamp in oocytes, αβ (1:50) GluClRs; assay type: cell-based, H. contortus; conditions: 30 nM; for efficacy (maximal current normalised to saturating glutamate) compared to IVM: normalised to 5 mM glutamate, αβ 1:50; for differential efficacy between α and αβ (1:50) GluClRs: α versus αβ (1:50)
Experimental: (§1) cDNAs encoding the α (avr-14b) (pcDNA 3.1+) or β (pUNIV) GluClR subunits of H. contortus were nuclear injected into oocytes (NASCO, WI USA) or transfected into HEK293AD cells (CellBank Australia) using a calcium phosphate-DNA co-precipitate method. Synapse formation between neurons and HEK293 cells was promoted by co-transfecting neuroligin 2A or 1B and the cDNA encoding CD4 surface antigen was also added to the transfection mixture so as to identify transfected cells. The oocytes and HEK cells were used for experiments 2–3 days after the introduction of the cDNAs. All experiments were done at room temperature (22 ± 1°C).
(§2) Xenopus laevis oocytes were harvested by surgical incision. The oocytes were then defolliculated with 1.5 mg/ml collagenase for 2 hours. Free oocytes were rinsed with calcium-free OR-2 solution containing (in mM) 82.5 NaCl, 2 KCl, 1 MgCl2, 5 HEPES, pH 7.4 and mature stage V or VI oocytes were isolated for experiments. The DNAs coding for α and β subunits were nuclear injected into the oocytes using a Nanoliter 2000 microinjector (WPI Inc) at a ratio of (α:β), 1:0, 0:1, 1:1 and 1:50. The total amount of injected DNA in all combinations was 400 ng ml^−1, including the 1:50 (α:β) combination (8 ng of DNA encoding the α and 392 ng of DNA encoding β subunits). Injected oocytes were incubated in ND96 storage solution (in mM) 96 NaCl, 2 KCl, 1 MgCl2.6H2O, 1.8 CaCl2, 5 HEPES, 50 μg ml^−1 gentamicin, 2.5 sodium pyruvate, 0.5 theophylline, pH 7.4 at 16°C for 2–3 days before experiment.
(§3) For the two-electrode voltage clamp recordings, each oocyte was secured in a cell bath that was continually perfused with ND96 recording solution (ND96 storage solution without pyruvate, theophylline and gentamicin). […] The two microelectrodes contained 3 M KCl and had resistances of 0.2–2 MΩ. Recordings were done using Clampex 10.2 software (Molecular Devices) at a clamped voltage of −40 mV. Currents were low-pass filtered at 200 Hz, sampled at 2 kHz using a Gene Clamp 500B amplifier and digitised by a Digidata 1440A interface. The IVM (IVM B1a) concentration-response experiments were standardised by using an application protocol that consisted of applying increasing concentrations of IVM for, respectively, 3 min, 3 min, 3 min, 2 min, 1 min, 1 min and 0.5 min.
(§4) Group data were analysed in SigmaPlot 13.0 using one-way ANOVAs, where p < 0.05 was taken as the significance threshold and expressed as mean ± SEM. Tests for normally distributed data are built into the SigmaPlot software. Confocal images were captured and analysed with Zen 2012 SP2 (Zeiss) software. Oocyte concentration-response data were fit to a Hill equation to obtain an EC50 and Hill co-efficient for each oocyte recording. These parameters were then averaged across multiple oocyte experiments of the same type. Single channel recordings were analysed in QuB software. […] The selected critical times eliminated periods of receptor desensitisation while retaining singe receptor active periods. Mean active period duration and intra-activation open probability was estimated from each patch. Group means were obtained by averaging across multiple patches for each recording condition.

α (avr-14b) GluClRs = α (avr-14b) GluClRs (Haemonchus contortus, UniProt O46124); assay: Two-electrode voltage clamp in oocytes, α GluClRs; assay type: cell-based, H. contortus; conditions: for efficacy (maximal current normalised to saturating glutamate) compared to IVM: 30 nM, normalised to 5 mM glutamate
Experimental: as §1, §2, §3, §4

[1] = test system: Untransfected HEK293 cells; assay: Fluorescence recovery after photobleaching (FRAP), lateral membrane diffusion
Experimental: The second experiment was aimed at determining the lateral membrane diffusion properties of IVM using the fluorescence recovery after photobleaching (FRAP) technique. After a 30-min equilibration time, 5 cells were monitored for fluorescence recovery within a bleached circular patch of membrane of 3.7 μm diameter (Fig 8C). Any bleaching and recovery of the surrounding area of the cell was measured, using a similar circular patch and used to correct the recovery rate of the membrane delineated by the bleached area. We also noted that the recovery reached 98 ± 2% of control. The time constant (τ) for recovery of 1.3 minutes was used to calculate the diffusion coefficient (D), using the radius (r) of the bleached patch, according to D = r^2/4τ. The calculated value of D was 1.1 x 10^−2 μm^2s^−1. Over the course of 1 s, the IVM-bdpy probe would traverse 0.2 μm along the membrane surface (lateral diffusion rate of 0.2 μms^−1). […] We infer that this slow lateral diffusion rate coupled to membrane partitioning are the major contributors to local increases of IVM around its target binding sites and the slow quasi-irreversible actions of IVM at GluClRs.
(§5) Membrane partitioning and FRAP experiments were performed on an LSM 710 inverted 2-photon confocal microscope equipped with a 40X water immersion objective lens (1.2 NA/280 μM WD/0.208 μM/pixel and a GFP/Alexa 488 filter set. Untransfected HEK293 cells at a confluency of 50–75% were plated onto 35-mm glass bottom dishes one day prior to experiments. The IVM-bdpy fluorophore was dissolved in 100% DMSO and stored at ‐20°C at a concentration of 24 mM.
(§6) A Mai Tai eHP 2-photon laser/760-1040 nm was used as an excitation source (power at 920 nm) for the FRAP experiments. The laser and bleaching power were set to 7% and 75% respectively. Membrane partitioning images were taken for 35 min at 0.5 Hz after replacing the cell medium (extracellular solution) with one containing the IVM-bdpy probe at a concentration of 500 nM. FRAP images were taken at a frequency of 0.5 Hz for 10 min after a 30 min equilibration period in 500 nM IVM-bdpy.

[2] = test system: Untransfected HEK293 cells; assay: Membrane partitioning, time-lapse fluorescence; conditions: 500 nM; for membrane accumulation time constant: change in membrane fluorescence over 30 min, exponential fit
Experimental: Two types of experiments were conducted with IVM-bdpy. The first was aimed at monitoring the time-course of membrane accumulation. Untransfected HEK293 cells were incubated in extracellular solution containing 500 nM IVM-bdpy and time-lapse images were taken over a period of 30 min (Fig 8A). The change in total membrane fluorescence averaged from 5 repeat experiments was then plotted against time and fitted to a standard exponential function (Fig 8B). In a control experiment, the corresponding accumulation rate was also determined for bdpy. To obtain the net membrane partitioning time-course for IVM-1, the data for the bdpy alone was subtracted from the data obtained for IVM-bdpy (Fig 8B). The time constants for the three plots were 6.5 min for the IVM-bdpy, 8.2 min for the bdpy fluorophore and 6.0 min for IVM-1. As the lipophilic properties of IVM and IVM-1 are similar (logPs of 5.4 and 5.1, respectively), we infer this analysis quantitatively reflects the membrane partitioning properties of IVM. […] It should be noted, however, that the IVM-bdpy experiment was done using a 100-fold higher concentration of drug in un-transfected cells and represents passive membrane accumulation, whereas the current plateau involved IVM binding to and activating receptors.
as §5, §6

α GluClRs = assay: IPSC recording in HEK293-neuron heteroculture, α GluClRs; assay type: cell-based, H. contortus; conditions: HEK293-neuron co-culture, −70 mV
Experimental: as §1
Primary neuronal cultures were prepared from cortices of E18 rat embryos, (University of Queensland Biological Services), which were triturated and plated at 100,000 cells per 18-mm poly-D-lysine-coated coverslip in DMEM with 10% fetal bovine serum. After 24 h the entire medium was replaced with Neurobasal medium that included 2% B27 and 1% GlutaMAX supplements. After one week half of this medium was replaced and the neurons were allowed to grow in vitro for 3–5 weeks before introducing the transfected HEK293 cells. Recordings of synaptic currents were done in whole-cell configuration at ‐70 mV using an Axopatch 200B amplifier (Molecular Devices), filtered at 5 kHz and digitized at 20 kHz using Clampex (pClamp 10 suite, Molecular Devices) via a Digidata 1440A digitizer.

Chain of αβ (1:50) GluClRs (O46124 entry or part of it): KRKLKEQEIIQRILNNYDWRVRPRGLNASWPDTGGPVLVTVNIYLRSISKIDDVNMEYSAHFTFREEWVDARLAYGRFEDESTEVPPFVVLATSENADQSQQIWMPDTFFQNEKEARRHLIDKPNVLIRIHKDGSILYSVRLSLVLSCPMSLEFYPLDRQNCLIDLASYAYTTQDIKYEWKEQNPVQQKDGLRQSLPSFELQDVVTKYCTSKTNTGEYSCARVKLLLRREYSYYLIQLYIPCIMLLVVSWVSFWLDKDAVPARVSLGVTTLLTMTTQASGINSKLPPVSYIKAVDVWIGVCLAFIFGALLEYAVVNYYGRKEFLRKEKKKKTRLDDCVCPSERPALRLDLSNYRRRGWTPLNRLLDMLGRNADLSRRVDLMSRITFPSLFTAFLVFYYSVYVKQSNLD
Chain of αβ (1:50) GluClRs (P91730 19-432): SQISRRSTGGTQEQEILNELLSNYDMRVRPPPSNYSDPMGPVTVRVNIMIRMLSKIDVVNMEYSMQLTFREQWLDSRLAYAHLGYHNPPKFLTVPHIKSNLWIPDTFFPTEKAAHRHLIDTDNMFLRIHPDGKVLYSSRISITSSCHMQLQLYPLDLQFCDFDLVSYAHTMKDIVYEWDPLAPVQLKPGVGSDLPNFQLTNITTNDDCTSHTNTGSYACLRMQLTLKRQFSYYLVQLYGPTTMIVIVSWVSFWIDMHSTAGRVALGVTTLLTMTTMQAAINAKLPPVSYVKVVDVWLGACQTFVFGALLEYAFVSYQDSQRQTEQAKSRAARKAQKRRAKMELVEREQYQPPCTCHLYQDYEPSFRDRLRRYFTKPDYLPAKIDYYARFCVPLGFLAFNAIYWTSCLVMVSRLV
Chain of α (avr-14b) GluClRs (O46124 entry or part of it): as the sequence (O46124 entry or part of it) above

## CC[C@H](C)[C@H]1O[C@]2(CC[C@@H]1C)C[C@@H]1C[C@@H](C/C=C(\C)[C@@H](OCOC)[C@@H](C)/C=C/C=C3\CO[C@@H]4[C@H](O)C(C)=C[C@@H](C(=O)O1)[C@]34O)O2 [IVM-2]
αβ (1:50) GluClRs
  efficacy (maximal current normalised to saturating glutamate) compared to IVM: preservation of efficacy
  differential efficacy between α and αβ (1:50) GluClRs: abolished the differential sensitivity
α (avr-14b) GluClRs
  efficacy (maximal current normalised to saturating glutamate) compared to IVM: restored efficacy

## CC[C@H](C)[C@H]1O[C@]2(CC[C@@H]1C)C[C@@H]1C[C@@H](C/C=C(\C)[C@@H](OCOC)[C@@H](C)/C=C/C=C3\CO[C@@H]4[C@@H](O)C(C)=C[C@@H](C(=O)O1)[C@]34O)O2 [IVM-3]
αβ (1:50) GluClRs
  efficacy (maximal current normalised to saturating glutamate) compared to IVM: most marked reduction in potency
  differential efficacy between α and αβ (1:50) GluClRs: ablated the differential efficacy
α (avr-14b) GluClRs
  efficacy (maximal current normalised to saturating glutamate) compared to IVM: most marked reduction in potency

## CCC1=C(C)C2=C(c3ccc(OCc4cn(CCCC(=O)O[C@@H]5/C(C)=C/C[C@@H]6C[C@@H](C[C@]7(CC[C@H](C)[C@@H]([C@@H](C)CC)O7)O6)OC(=O)[C@@H]6C=C(C)[C@@H](O)[C@H]7OC/C(=C\C=C\[C@@H]5C)[C@]76O)nn4)cc3)c3c(C)c(CC)c(C)n3[B-](F)(F)[N+]2=C1C [IVM-bdpy]
[1]; 500 nM, 30 min equilibration
  FRAP recovery time constant (τ): 1.3 min
[1]; calculated by D = r^2/4τ
  diffusion coefficient (D): 1.1 x 10^−2 μm^2s^−1
[1]; in cell membrane
  lateral diffusion rate: 0.2 μms^−1
α (avr-14b) GluClRs; concentration-response, n = 6
  potency relative to IVM: reduced potency
α (avr-14b) GluClRs; oocyte current
  activity at α GluClRs: active
[2]
  time to saturate whole cell membranes: about 18 minutes
  membrane accumulation time constant: 6.5 min

## C#CCOc1ccc(C2=C3C(C)=C(CC)C(C)=[N+]3[B-](F)(F)n3c(C)c(CC)c(C)c32)cc1 [bdpy]
[2]
  membrane accumulation time constant: 8.2 min

## picrotoxin
α GluClRs
  effect on IPSCs: blocked

Source: paper PMC6368337, “GluClR-mediated inhibitory postsynaptic currents reveal targets for ivermectin and potential mechanisms of ivermectin resistance” (PLoS Pathogens, 2019)
